What is called IC50 is the concentration needed to halve the response being measured. High values mean weaker potency, low ones greater potency.

The test system of one experiment is MOLM-13 cells. Kind of experiment: MOLM-13 Cellular Assay. Format: cell-based. The conditions noted are these: Homo sapiens, 72 hours, cell viability by CellTiter-Glo. The protocol:
MOLM-13 cells were obtained from DSMZ and were maintained in RPMI 1640+Glutamax+25 mM HEPES (Invitrogen, catalog number 72400) supplemented with 10% heat inactivated fetal bovine serum (FBS; Invitrogen, catalog number 16140). The day prior to assay set-up, cells were pelleted, resuspended in fresh media, counted, and cells were plated at 0.4×10^6 cell/mL in a T150 flask. On the day of the assay, cells were pelleted, resuspend in fresh media, counted, and seeded at 5,000 cells/well in white opaque 96-well tissue culture treated microplates (Perkin Elmer, catalog number 6005680). Cells were exposed to different concentrations of test compounds at 37° C., 5% CO2 for 72 hours immediately after seeding. Cell viability was acquired on a Perkin Elmer Envision 2104 multilabel reader using the CellTiter-Glo assay (Promega) according to the manufacturer's instructions.
A general note: ATP-based viability assays read luminescence as a measure of living cells.

The target in the next experiment is human DHODH (Homo sapiens (Human), UniProt Q02127). Briefly: DHODH Enzymatic Assay. The format is biochemical. Conditions: purified human DHODH, DCIP absorbance, end-point mode. The protocol:
To detect DHODH enzyme activities, dichloroindophenol (DCIP) is added as the final electron acceptor in the assay. DCIP can accept electrons from the reduced coenzyme Q generated in the assay, or from dihydroorotate (DHO) via FMN by binding presumably to the ubiquinone pocket. […] The assay buffer contained […], pH 7.5, 150 mM NaCl, 0.5 mM EDTA, and 0.1% Triton X-100 in MilliQ water. Substrate consisting of 20 mM DHO, 5 mM CoQ6, and 1 mM DCIP in assay buffer, initiates the reaction. […] Absorbance measurements were obtained using the BMG Phera Star plate-reading spectrophotomer. Purified human DHODH was purchased from Proteros (cat. No. PR-0044). Chemicals were purchased from Sigma-Aldrich, Teknova, and Avanti Polar Lipids. Liquid handling was performed using Labcyte Echo and Formulatrix Tempest.

human DHODH, sequence (Q02127 whole entry): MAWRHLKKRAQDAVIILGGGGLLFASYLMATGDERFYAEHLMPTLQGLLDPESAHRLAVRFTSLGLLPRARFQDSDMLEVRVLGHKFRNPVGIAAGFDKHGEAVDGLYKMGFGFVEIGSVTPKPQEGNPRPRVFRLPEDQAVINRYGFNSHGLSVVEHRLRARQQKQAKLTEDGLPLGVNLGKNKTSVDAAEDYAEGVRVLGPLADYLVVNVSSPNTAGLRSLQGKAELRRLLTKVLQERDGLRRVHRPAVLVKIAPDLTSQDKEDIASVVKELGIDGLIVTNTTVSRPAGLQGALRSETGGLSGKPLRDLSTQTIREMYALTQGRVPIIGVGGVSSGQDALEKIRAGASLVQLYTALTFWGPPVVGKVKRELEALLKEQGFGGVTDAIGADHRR

With `CCn1c(CO)nn(-c2cc3c(cc2F)c(=O)c(-c2cc(C)ccc2F)cn3C(C)C)c1=O` [Example 9, 7-(4-Ethyl-3-(hydroxymethyl)-5-oxo-4,5-dihydro-1H-1,2,4-triazol-1-yl)-6-fluoro-3-(2-fluoro-5-methylphenyl)-1-isopropylquinolin-4(1H)-one], the values for the IC50 in the experiment on MOLM-13 cells and on human DHODH were greater than 100 nM and 58.2 nM, respectively.
For `CCn1c(CO)nn(-c2cc3c(cc2F)C(C)=C(c2ccccc2C)CN3C(C)C)c1=O` [Example 21, 4-Ethyl-2-(6-fluoro-1-isopropyl-4-methyl-3-(o-tolyl)-1,2-dihydroquinolin-7-yl)-5-(hydroxymethyl)-2,4-dihydro-3H-1,2,4-triazol-3-one], the IC50 with MOLM-13 cells came out at 2 nM; against human DHODH, 3.71 nM.
The like results for `CCn1c(CO)nn(-c2cc3c(cc2F)N(C(C)=O)C(c2ccccc2C)CC3C(C)C)c1=O` (stereo not drawn) [Example 24, 1-(1-Acetyl-7-fluoro-4-isopropyl-2-(o-tolyl)-1,2,3,4-tetrahydroquinolin-6-yl)-4-ethyl-3-(hydroxymethyl)-1H-1,2,4-triazol-5(4H)-one] were, in that order, greater than 100 nM and 5530 nM.

Values taken from US20240166622A1, “FLUORINATED QUINOLINE, QUINOXALINE AND BENZO[B][1,4]OXAZINE DERIVATIVES AS DIHYDROOROTATE DEHYDROGENASE (DHODH) INHIBITORS FOR THE TREATMENT OF CANCER, AUTOIMMUNE AND INFLAMMATORY DISEASES” (Janssen Biotech, Inc., priority 2019, published 2024).
